In patent publication US20190077795A1, “ARGININE […] INHIBITORS AND USES THEREOF” (Epizyme, Inc., priority 2014, published 2019):
Read-outs that look alike come from different tables or passages of the source.

Columns and labels:
human PRMT1 = target: T1, human PRMT1 (Homo sapiens, UniProt Q99873); test: PRMT1 Biochemical Assay; conditions: peptide substrate, 3H-SAM Flashplate assay; read-out: PRMT1 IC50
T1 construct: GST-tagged PRMT1; made in house; host or cells: High Five insect cells (baculovirus, pFastBac1)
Source text: (§1) S-adenosylmethionine (SAM), S-adenosylhomocysteine (SAH), bicine, Tween20, dimethylsulfoxide (DMSO), bovine skin gelatin (BSG), and Tris(2-carboxyethyl)phosphine hydrochloride solution (TCEP) were purchased from Sigma-Aldrich at the highest level of purity possible. ^3H-SAM was purchase from American Radiolabeled Chemicals with a specific activity of 80 Ci/mmol. 384-well streptavidin Flashplates were purchased from PerkinElmer.
Recombinant baculovirus were generated according to Bac-to-Bac kit instructions (Life Technologies). […] Infections were carried out at 27° C. for 48 hours, harvested by centrifugation, and stored at −80° C. for purification.
GST-tagged PRMT1 was eluted with 50 mM Tris, 2 mM glutathione, pH 7.8, dialysed in buffer A and concentrated to 1 mg/mL.
General Procedure for PRMT1 Enzyme Assays on Peptide Substrates.
(§2) The assays were all performed in a buffer consisting of 20 mM Bicine (pH=7.6), 1 mM TCEP, 0.005% BSG, and 0.002% Tween 20, prepared on the day of use. […] DMSO (1 ul) was added to Columns 11, 12, 23, 24, rows A-H for the maximum signal control and 1 ul of SAH, a known product and inhibitor of PRMT1, was added to columns 11, 12, 23, 24, rows I-P for the minimum signal control. A cocktail (40 ul) containing the PRMT1 enzyme was added by Multidrop Combi (Thermo-Fisher). The compounds were allowed to incubate with PRMT1 for 30 min at room temperature, then a cocktail (10 ul) containing SAM and peptide was added to initiate the reaction (final volume=51 ul). […] The assays were stopped by the addition of non-radiolabeled SAM (10 ul) to a final concentration of 300 uM, which dilutes the ^3H-SAM to a level where its incorporation into the peptide substrate is no longer detectable. 50 ul of the reaction in the 384-well polypropylene plate was then transferred to a 384-well Flashplate and the biotinylated peptides were allowed to bind to the streptavidin surface for at least 1 hour before being washed once with 0.1% Tween20 in a Biotek ELx405 plate washer. The plates were then read in a PerkinElmer TopCount plate reader to measure the quantity of ^3H-labeled peptide bound to the Flashplate surface, measured as disintegrations per minute (dpm) or alternatively, referred to as counts per minute (cpm).
(§3) Where dpm=disintegrations per minute, cmpd=signal in assay well, and min and max are the respective minimum and maximum signal controls.
(§4) Where top and bottom are the normally allowed to float, but may be fixed at 100 or 0 respectively in a 3-parameter fit. The Hill Coefficient normally allowed to float but may also be fixed at 1 in a 3-parameter fit. Y is the % inhibition and X is the compound concentration.

human PRMT8 = human PRMT8 (Homo sapiens, UniProt Q9NR22); test: PRMT8 Biochemical Assay; conditions: peptide substrate, 3H-SAM Flashplate assay
Source text: S-adenosylmethionine (SAM), S-adenosylhomocysteine (SAH), bicine, Tween20, dimethylsulfoxide (DMSO), bovine skin gelatin (BSG), isopropyl-3-D-thiogalactopyranoside (IPTG), and Tris(2-carboxyethyl)phosphine hydrochloride solution (TCEP) were purchased from Sigma-Aldrich at the highest level of purity possible. ^3H-SAM was purchase from American Radiolabeled Chemicals with a specific activity of 80 Ci/mmol. 384-well streptavidin Flashplates were purchased from PerkinElmer.
E. coli (BL21(DE3) Gold, Stratagene) made competent by the CaCl2 method were transformed with the PRMT8 construct and ampicillin selection. Protein over-expression was accomplished by growing the PRMT8 expressing E. coli clone and inducing expression with 0.3 mM IPTG at 16° C. The culture was grown for 12 hours, harvested by centrifugation, and stored at −80° C. for purification.
GST-tagged PRMT8 was eluted with 50 mM Tris, 2 mM glutathione, pH 7.8. Pooled fractions were cleaved by thrombin (10U) and dialysed in buffer A. GST was removed by reloading the cleaved protein sample onto glutathione sepharose column and PRMT8 was collected in the flow-through fractions. PRMT8 was purified further by ceramic hydroxyapatite chromatography. The column was washed with 50 mM phosphate buffer, 100 mM NaCl, 5% glycerol, 5 mM β-mercaptoethanol, pH 7.8 and PRMT8 was eluted by 100 mM phosphate in the same buffer. Protein was concentrated and buffer was exchanged to 50 mM Tris, 300 mM NaCl, 10% glycerol, 5 mM β-mercaptoethanol, pH 7.8 by ultrafiltration.
General Procedure for PRMT8 Enzyme Assays on Peptide Substrates.
The assays were all performed in a buffer consisting of 20 mM Bicine (pH=7.6), 1 mM TCEP, 0.005% BSG, and 0.002% Tween 20, prepared on the day of use. […] DMSO (1 ul) was added to Columns 11, 12, 23, 24, rows A-H for the maximum signal control and 1 ul of SAH, a known product and inhibitor of PRMT8, was added to columns 11, 12, 23, 24, rows I-P for the minimum signal control. A cocktail (40 ul) containing the PRMT8 enzyme was added by Multidrop Combi (Thermo-Fisher). The compounds were allowed to incubate with PRMT8 for 30 min at room temperature, then a cocktail (10 ul) containing ^3H-SAM and peptide was added to initiate the reaction (final volume=51 ul). […] The assays were stopped by the addition of non-radiolabeled SAM (10 ul) to a final concentration of 400 uM, which dilutes the ^3H-SAM to a level where its incorporation into the peptide substrate is no longer detectable. 50 ul of the reaction in the 384-well polypropylene plate was then transferred to a 384-well Flashplate and the biotinylated peptides were allowed to bind to the streptavidin surface for at least 1 hour before being washed once with 0.1% Tween20 in a Biotek ELx405 plate washer. The plates were then read in a PerkinElmer TopCount plate reader to measure the quantity of ^3H-labeled peptide bound to the Flashplate surface, measured as disintegrations per minute (dpm) or alternatively, referred to as counts per minute (cpm).

human PRMT6 = target: T2, human PRMT6 (Homo sapiens, UniProt Q96LA8); test: PRMT6 Biochemical Assay; conditions: read-out: PRMT6 IC50
T2 construct: Flag-PRMT6-His; made in house; host or cells: HEK 293F cells (BacMam baculovirus, pFastBacMam)
Source text: as §1, with “(BSG), sodium butyrate” for “(BSG),”
Peptide representative of human histone H4 residues 36-50 was synthesized with an N-terminal linker-affinity tag motif and a C-terminal amide cap by 21st Century Biochemicals.
The amplified gene was subcloned into pFastBacMam (Viva Biotech).
Recombinant baculovirus were generated according to Bac-to-Bac kit instructions (Life Technologies). […] Infections were carried out at 37° C. for 48 hours, harvested by centrifugation, and stored at −80° C. for purification.
Column was washed with 20 mM imidazole in the same buffer and Flag-PRMT6-His was eluted with 150 mM imidazole. Pooled fractions were dialysed against buffer Ni-A and further purified by anti-flag M2 affinity chromatography. Flag-PRMT6-His was eluted with 200 ug/ml FLAG peptide in the same buffer. Pooled fractions were dialysed in 20 mM Tris, 150 mM NaCl, 10% glycerol and 5 mM β-mercaptoethanol, pH 7.8.
General Procedure for PRMT6 Enzyme Assays on Peptide Substrates.
as §2, with “PRMT6,” for “PRMT1,”, “PRMT6” for “PRMT1”, “400” for “300”
as §3, §4

[1] = test system: mono-methyl arginine in RKO cells; test: RKO Methylation Assay, In Cell Western (ICW); assay type: cell-based; conditions: 72 hours
Source text: RKO adherent cells were purchased from ATCC (American Type Culture Collection), Manassas, Va., USA. DMEM/Glutamax medium, penicillin-streptomycin, heat inactivated fetal bovine serum, 0.05% trypsin and D-PBS were purchased from Life Technologies, Grand Island, N.Y., USA. Odyssey blocking buffer, 800CW goat anti-rabbit IgG (H+L) antibody, and Licor Odyssey infrared scanner were purchased from Licor Biosciences, Lincoln, Nebr., USA. Mono-methyl arginine antibody was purchased from Cell Signaling Technology, Danvers, Mass., USA. Methanol was purchased from VWR, Franklin, Mass., USA. 10% Tween 20 was purchased from KPL, Inc., Gaithersburg, Md., USA. DRAQ5 was purchased from Biostatus Limited, Leicestershire, UK.
RKO adherent cells were maintained in growth medium (DMEM/Glutamax medium supplemented with 10% v/v heat inactivated fetal bovine serum and 100 units/mL penicillin-streptomycin) and cultured at 37° C. under 5% CO2.
Cell treatment, In Cell Western (ICW) for detection of mono-methyl arginine and DNA content.
Compound (100 nL) from a 96-well source plate was added directly to 384 well cell plate. Plates were incubated at 37° C., 5% CO2 for 72 hours. After three days of incubation, plates were brought to room temperature outside of the incubator for ten minutes and blotted on paper towels to remove cell media. 50 μL of ice cold 100% methanol was added directly to each well and incubated for 30 min at room temperature. After 30 min, plates were transferred to a Biotek EL406 plate washer and washed 2 times with 100 μL per well of wash buffer (1×PBS). Next 60 μL per well of Odyssey blocking buffer (Odyssey Buffer with 0.1% Tween 20 (v/v)) were added to each plate and incubated 1 hour at room temperature. Blocking buffer was removed and 20 μL per well of primary antibody was added (mono-methyl arginine diluted 1:200 in Odyssey buffer with 0.1% Tween 20 (v/v)) and plates were incubated overnight (16 hours) at 4° C. Plates were washed 5 times with 100 μL per well of wash buffer. […] The plates were washed 5 times with 100 μL per well wash buffer then 2 times with 100 μL per well of water. Plates were allowed to dry at room temperature then imaged on the Licor Odyssey machine which measures integrated intensity at 700 nm and 800 nm wavelengths. Both 700 and 800 channels were scanned.
First, the ratio for each well was determined by:
Each plate included fourteen control wells of DMSO only treatment (minimum activation) as well as fourteen control wells for maximum activation treated with 20 μM of a reference compound. The average of the ratio values for each control type was calculated and used to determine the percent activation for each test well in the plate. Reference compound was serially diluted three-fold in DMSO for a total of nine test concentrations, beginning at 20 μM. Percent activation was determined and EC30 curves were generated using triplicate wells per concentration of compound.

[2] = peptide substrate, 3H-SAM Flashplate assay

T2 sequence (Q96LA8 with tags, fused parts or gaps): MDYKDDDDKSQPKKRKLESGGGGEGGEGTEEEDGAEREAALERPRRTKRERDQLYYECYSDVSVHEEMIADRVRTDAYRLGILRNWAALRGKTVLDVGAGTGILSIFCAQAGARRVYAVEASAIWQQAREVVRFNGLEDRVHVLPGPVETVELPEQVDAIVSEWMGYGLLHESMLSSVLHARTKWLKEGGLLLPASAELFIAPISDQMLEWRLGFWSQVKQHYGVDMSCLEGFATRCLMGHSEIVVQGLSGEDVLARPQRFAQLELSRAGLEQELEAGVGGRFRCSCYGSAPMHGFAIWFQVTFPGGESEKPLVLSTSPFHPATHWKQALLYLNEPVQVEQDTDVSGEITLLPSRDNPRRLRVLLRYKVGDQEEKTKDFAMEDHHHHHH
Sequence of human PRMT8 (Q9NR22 whole entry): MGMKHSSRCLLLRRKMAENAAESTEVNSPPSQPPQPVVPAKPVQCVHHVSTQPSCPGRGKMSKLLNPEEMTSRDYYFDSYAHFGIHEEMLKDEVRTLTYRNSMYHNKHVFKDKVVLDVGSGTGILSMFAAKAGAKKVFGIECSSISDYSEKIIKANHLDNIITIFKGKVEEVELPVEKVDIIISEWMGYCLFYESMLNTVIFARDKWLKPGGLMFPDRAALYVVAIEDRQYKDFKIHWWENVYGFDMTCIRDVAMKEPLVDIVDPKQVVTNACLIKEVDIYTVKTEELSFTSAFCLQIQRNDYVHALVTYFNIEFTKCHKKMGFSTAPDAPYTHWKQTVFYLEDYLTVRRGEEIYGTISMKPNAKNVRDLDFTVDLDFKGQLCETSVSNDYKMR
T1 sequence (Q99873 with tags, fused parts or gaps): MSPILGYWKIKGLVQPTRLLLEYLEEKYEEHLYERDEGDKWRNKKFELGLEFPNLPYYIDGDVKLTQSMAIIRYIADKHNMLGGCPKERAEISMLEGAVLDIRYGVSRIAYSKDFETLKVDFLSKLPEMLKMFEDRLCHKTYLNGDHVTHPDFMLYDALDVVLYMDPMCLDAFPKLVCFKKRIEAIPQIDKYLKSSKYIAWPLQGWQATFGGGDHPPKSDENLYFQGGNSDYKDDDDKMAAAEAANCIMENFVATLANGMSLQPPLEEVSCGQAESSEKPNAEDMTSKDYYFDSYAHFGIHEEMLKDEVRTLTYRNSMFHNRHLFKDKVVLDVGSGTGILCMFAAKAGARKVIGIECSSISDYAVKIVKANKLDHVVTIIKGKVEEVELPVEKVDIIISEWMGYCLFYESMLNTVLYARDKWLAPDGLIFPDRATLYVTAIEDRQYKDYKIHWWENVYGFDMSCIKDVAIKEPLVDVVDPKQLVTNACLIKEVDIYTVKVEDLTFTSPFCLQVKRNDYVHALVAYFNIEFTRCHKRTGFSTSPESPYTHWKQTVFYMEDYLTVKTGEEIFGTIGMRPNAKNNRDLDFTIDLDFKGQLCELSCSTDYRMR

IC50 (human PRMT1) [nM]	IC50 (human PRMT8; PRMT8 IC50 (uM)) [µM]	IC50 (human PRMT6; [2]) [nM]	SMILES	ICW EC30 [1] [nM]	IC50 (human PRMT8; read-out: PRMT8 IC50) [µM]	IC50 (human PRMT6) [nM]
7.37	0.0135	26.7	CNCCN(C)Cc1c[nH]nc1[C@H]1CC[C@@H](OCCOc2ccc(OCCOC)cc2)CC1 [Compound 34]	80.13	–	–
36.7	0.252	955	CNCCN(C)Cc1c[nH]nc1-c1ccc(N(C)C2CCOCC2)cc1 [Compound 111]	1040	–	–
14.8	0.295	38	CNCCN(C)Cc1c[nH]nc1-c1ccc(OCCCOC)c(OCC2CCOC2)c1 (stereo not shown) [Compound 68]	3454	–	–
4.3	0.0133	3.15	CNCCN(C)Cc1c[nH]nc1-c1ccc(OCCOc2cccc(C)c2)cc1 [Compound 153]	177.6	–	–
5.49	0.0146	5.18	CNCCN(C)Cc1c[nH]nc1-c1ccc(OCCOc2cccc(OCCC3CCOCC3)c2)cc1 [Compound 14]	347.3	–	–
6.23	0.026	6.16	CNCCN(C)Cc1c[nH]nc1-c1ccc(OCCOc2ccc(C(O)CO)cc2)cc1 (stereo not shown) [Compound 21]	3184	–	–
8.34	0.0247	7.39	CNCCN(C)Cc1c[nH]nc1-c1ccc(OCCOc2ccc(OCC(C)C)cc2)cc1 [Compound 40]	505.1	–	–
21.3	0.0853	14.4	CNCCN(C)Cc1c[nH]nc1-c1ccc(OC2CC(O)C2)cc1 (stereo not shown) [Compound 85]	3594	–	–
5.85	0.0336	4.05	CNCCN(C)Cc1c[nH]nc1-c1ccc(OCCOc2ccc(OC)cc2)cc1 [Compound 135]	86	–	–
5.12	0.024	2.22	CNCCN(C)Cc1c[nH]nc1-c1ccc(OCCOc2ccc(OCc3ccccc3)cc2)cc1 [Compound 9]	329.1	–	–
23.1	0.0475	25.1	CNCCN(C)Cc1c[nH]nc1-c1ccc(OC2CCC(OC(C)C)CC2)cc1 (stereo not shown) [Compound 89]	449.1	–	–
111	0.162	16.4	CNCCN(C)Cc1c[nH]nc1-c1ccc(OC2CC(OCCN3CCOCC3)C2)cc1 (stereo not shown) [Compound 147]	4237	–	–
15.3	0.0452	4390	CNCCN(C)Cc1c[nH]nc1-c1cc(CC(C)C)cc(OCCOC)c1 [Compound 71]	680	–	–
6.08	0.0366	9.77	CNCCN(C)Cc1c[nH]nc1-c1ccc(OCCOc2ccc(C(F)(F)F)cc2)cc1 [Compound 138]	327.8	–	–
7.59	0.0219	5	CNCCN(C)Cc1c[nH]nc1-c1ccc(OCCOc2ccc(OCCC(O)CO)cc2)cc1 (stereo not shown) [Compound 35]	422.7	–	–
49.2	–	18.2	CNCCN(C)Cc1c[nH]nc1-c1ccc(OC2CC(OCC(C)C)C2)cc1 (stereo not shown) [Compound 131]	14756	–	–
–	–	–	CNCCN(C)Cc1c[nH]nc1-c1ccc(OC2CC(OCCC3CCCCC3)C2)cc1 (stereo not shown) [Compound 150]	>20000	–	–
36.4	–	143	CNCCN(C)Cc1ccnn1[C@H]1CC[C@@H](COC)CC1 [Compound 110]	1204	–	–
–	–	–	CNCCN(C)Cc1c[nH]nc1-c1cc(OC(CO)CC(C)C)cc(C(F)(F)F)c1 (stereo not shown) [Compound 73]	2102	0.0438	1900
41.7	–	272	CNCCN(C)Cc1c[nH]nc1-c1ccc(N(C)CC2CCOCC2)nc1 [Compound 120]	4389	–	–
37.3	–	27.8	CNCCN(C)Cc1c[nH]nc1-c1ccc(OCCOc2ccnnc2)cc1 [Compound 112]	3994	–	–
